Values quoted from earlier work in patent publication US20260229307A1, “CLEAVED NEOEPITOPES” (IOGENETICS, LLC, priority 2023, published 2026).

Columns and labels:
[1] = human muscular dystrophy trial
[2] = relative to E64

In the case of `CCOC(=O)[C@H]1O[C@@H]1C(=O)N[C@@H](CC(C)C)C(=O)NCCC(C)C` [aloxistatin], the safety in humans [1] is given as “demonstrate the safety” and the “cell permeability and adsorption” value [2] is given as “improved cell permeability and adsorption”.
